Measured values from patent US20090317419A1, “Tetramers” (Duke University, priority 2008, published 2009).
Read-outs that look alike come from different tables or passages of the source. Ends that are not written are not given here. * marks the point of attachment. Biotin = O=C1N[C@H]2[C@H](CS[C@H]2CCCCC(=O)*)N1

Experiments:
[1] = tested on: naïve splenic B cells, C57BL/6 congenic strain bearing the IgH^a allotype
Method: (§1) Mice. Female C57BL/6, BALB/c, B6Igh^a, and CB17 (BALBc Igh^b) inbred mouse strains (8-12 weeks of age) were purchased from Charles River Laboratories. All mice were housed in the Duke University Animal Facility in a pathogen-free environment with 12 hour light/dark cycles at 20-25° C. under AALAC guidelines and in accordance with all Institutional Animal Care and Use Committee and Duke University Institutional Biosafety Committee-approved animal protocols.
(§2) Antibodies and flow cytometry. Immunofluorescent staining of single cell suspensions (≧2×10^6) was conducted using pre-mixed combinations of fluorochrome-labeled antibodies and APC-conjugated B cell tetramers at empirically-determined optimal concentrations. All antibodies were from BD unless otherwise stated. […] Other reagents included biotinylated antibodies against dump channel markers: Thy1 (Ox7; Abcam), F4/80 (BM8; Abcam), CD11c (clone HL3), Gr-1 (clone RB6-8C5), TER-119, and NK-1.1 (clone PK136), secondary staining SA-Texas Red conjugate; v-amine live/dead violet dye (Molecular Probes), and Fc block (anti-CD16/32; clone 2.4G2).
(§3) Staining was conducted at 4° C. in several sequential steps in FACS staining buffer (1×PBS with 2% FCS, 0.1% NaN3), washing twice between steps. First, cells were incubated with v-amine live/dead dye for 15 min. Next, cells were stained with APC-labeled tetramers for 30 min. […]

[2] = tested on: naïve splenic B cells, BALB/c congenic strain bearing the IgH^b allotype
Method: as §1, §2, §3

[3] = tested on: B Cell Receptor of purified naïve BALB/c splenic B cells; details: 10 μg/ml anti-Ig, 37° C., by 15 min
Method: B cell purification, BCR internalization assay, and microscopy of BCR cap formation. Splenic B cells were purified by negative depletion of CD43-expressing non B cells with anti-mouse CD43 MACS beads (Miltenyi Biotechnology) resulting in fractions >90% B cells.
For analysis of BCR internalization by flow cytometry, purified B cells were pre-incubated on ice for 30 min with either a 95:5 unlabeled/R-PE-labeled mixture of 10 μg/ml goat anti-mouse-IgM+IgG (H+L) F(ab)2 fragments (Jackson ImmunoResearch laboratories). To remove excess reagent, cells were then washed, resuspended in DMEM 10% FCS, and stimulated by warming to 37° C. (or at 4° C. as a control) for the indicated time points. […] Percent internalization for tetramers was calculated on gp41 MPER+B220+ subsets (the gp41 MPER gate set based on the FMO control) by the formula [% gp41 MPER (To)−% gp41 MPER (Tn)]/% Sp62 (To)×100. In other experiments, cells were pre-incubated with either 5 mg/ml mannan, 125 mM α-methyl-mannopyranoside (Sigma-Aldrich), or 10 μg/ml unlabeled goat anti-mouse-IgM+IgG (H+L) F(ab)2 fragments, prior to staining with APC-labeled tetramers.

[4] = tested on: CD19+ B cells of HIV-1 infected subject
Method: Staining of bulk populations for the sorts. Cells from uninfected or HIV-1 infected patients were obtained by leukopheresis under an IRB-approved protocol and were rested in culture overnight in 10% FBS in RPMI-1640 at 37° C. in 5% CO2. Rested cells were enriched for B cells by depletion of non-B cells using magnetic bead separation (BD Biosciences, Mountain View, Calif.). […] Cells were sorted on a BD FACS Aria (BD Biosciences, Mountain View, Calif.) into CD3^− CD14^− CD16^− CD19^+ tetramer and CD3^− CD14^− CD16^− CD19^+ tetramer^+ pools and also as single cells into a 96-well plates containing RNA extraction buffer.

[5] = tested on: mixture of anti-gp41 MPER 13H11 cells and anti-gp120 V3 F39F cells
Method: (§4) Use of antibody-coated beads and cell lines for tetramer quality control. Tetramer stocks were diluted to twice the desired final concentration in PBS containing 1% BSA. An equal volume of beads or cells at 5×10^5 up to 2×10^6 per sample were mixed with tetramer and incubated (4° C.×30 min). Beads or cells were washed with PBS+1% BSA before being fixed in 2% methanol-free formaldehyde (Polysciences, Inc, Warrington, Pa.) in PBS. Samples were stored at 4° C. prior to being analyzed by flow cytometry (BD LSR II, Becton Dickinson, Mountain View, Calif.). Data were analyzed using FlowJo (Tree Star, Ashland, Oreg.). For tetramer titration 40-80 ng tetramer per 10^6 cells/beads was serially diluted over 8-12 points. Optimal concentrations determined by this method were used for subsequent experiments. For cold competition experiments the incubation step was performed by staining with 10-fold excess unlabeled tetramer (4° C.×30 min) prior to the addition of APC-labeled tetramer. For cell dilution experiments, a mixture of mAb cell lines was made and then 1:10 serial dilutions of cells prepared. For cross competition experiments, mixtures of cells were prepared and then stained singly with anti-IgG reagents or tetramer, or the cells were doubly stained with both reagents either sequentially or concurrently.

[6] = tested on: 13H11 cells; details: flow cytometry
Method: as §4

[7] = tested on: mAb 2F5 (neutralizing anti-gp41 MPER); details: SPR, mAb 2F5 captured
Method: (§5) Surface Plasmon Resonance (SPR) measurements of tetramer binding to peptide epitopes. Tetramer binding assays were carried out on a BIAcore 3000 (BIAcore/GE Healthcare, Piscataway, N.J.) instrument using mAbs against each specific B cell epitope.
(§6) Each mAb (about 1000 RU) was first captured on anti-human Fc mAb (Pierce, Rockford, Ill.) immobilized on a CM5 sensor chip. Approximately 3000 RU of anti-human Fc mAb was covalently coupled to each flow cell of the sensor chip as described before (Alam et al, Journal of Immunology 178:4424-4435 (2007)). Each B cell tetramer was injected over its epitope specific mAb or a control surface immobilized with irrelevant mAb. For each tetramer binding curve, non-specific binding signals obtained from the control surface were subtracted. The binding assay was monitored at 25° C. and using PBS, pH 7.4, as the running buffer. The BIAevaluation 3.0 software (BIAcore/GE Healthcare, Piscataway, N.J.) was used for SPR binding data analyses.

[8] = tested on: mAb 13H11 (non-neutralizing anti-gp41 MPER); details: SPR, mAb 13H11 captured
Method: as §5, §6

Substance: Biotin-GGGQQEKNEQELLELDKWASLWN [gp41 MPER tetramer]
- tetramer binding to splenic B cells [1]: restores gp41 2F5 MPER binding
- tetramer binding to splenic B cells [2]: completely loses gp41 2F5 MPER binding
- tetramer downmodulation [3]: > 80%
- tetramer positive cells of CD19+ B cells ([4]; before sorting, non-B cell depleted PBMC): 0.15%
- tetramer positive cells of CD19+ B cells ([4]; reanalysis after sorting of tetramer positive gate): 45.3%
- cells stained with tetramer ([5]; mixture diluted tenfold with F39F cells): 1.47%
- cells staining over background ([5]; mixture further diluted tenfold with F39F cells): 0.12%
- cells stained with tetramer ([5]; mixture of 85% F39F cells and 15% 13H11 cells): 15.1%
- binding to mAb cell line [6]: bound
- koff [7]: 0.37 s^−1 × 10^−3
- kon [7]: 174 M^−1s^−1 × 10^3
- koff [8]: 8.1 s^−1 × 10^−3
- kon [8]: 206 M^−1s^−1 × 10^3
